Results reported in patent publication US20240238268A1, “TREATMENTS AND METHODS FOR TREATING ALZHEIMER'S DISEASE” (Board of Supervisors of Louisiana State University and …, priority 2021, published 2024).

Experiments:
Format in all cases: in vivo, mouse
E-Cadherin = E-Cadherin level, protein chip assay; settings: aged 3xTg-AD female mice; cortex and hippocampus; 30 mg/kg, 7 days, IP
Procedure: FIGS. 19A-19F are six graphs showing PRMT4 inhibitor (TP-064) reduced ICAM-1, VCAM-1 and enhanced E-Cadherin protein levels in aged female 3xTg-AD mice. In FIGS. 19A-19D, aged 3xTg-AD female mice v. […] Adhesion molecules were assessed via protein chip assay in the cortex and hippocampus. * p<0.05 evaluated by one-way ANOVA with Tukey's post-hoc analyses.

nNOS = nNOS protein level in brain, capillary-phoresis; settings: treated 3xTg-AD mice; control = 100%
Excerpt: (§1) Capillary-phoresis immunoassay via ProteinSimple®: Quantification of all protein targets was achieved using Simple Western analysis in a Jess™ apparatus per the manufacturer's protocol (ProteinSimple, Bio-techne, Minneapolis, MN). Protein was extracted from dissected tissue in an extraction buffer consisting of T-PER® Tissue Protein Extraction Reagent (Cat. No. 78510, Thermo Fischer Scientific, Waltham, MA) and Halt™ Protease Inhibitor Cocktail (Cat. No. 87785, Thermo Fischer Scientific, Waltham, MA). Following homogenization and centrifugation (10,000×g, 5 min, 4° C.), protein concentration was determined in tissue protein supernatant samples using DC Protein Assay (Cat. No. 5000112, Bio-Rad Laboratories, Hercules, California) according to manufacturer instructions. […] Antibody diluent (ProteinSimple, Bio-techne, Minneapolis, MN) was used for all antibody dilutions as follows: PRMT4 (1:50, RRID: AB_2068436), PRMT6 (1:100, Cell Signaling Technology cat. 14641), eNOS (1:200, RRID: AB_10850618), nNOS (1:100, RRID: AB_2152488), iNOS (1:100, RRID: AB_10000625), DDAH2 (1:50, RRID: AB_2640442) Antibodies were detected using HRP-conjugated secondary anti-rabbit, and -mouse. Relative protein levels were calculated by measuring the area under the peak of a chemiluminescent chromatogram and normalized to total capillary chemiluminescence for a given sample. […]

aged 3xTg-AD female mice [1] = assay: BBB permeability: Evan's blue brain penetration; settings: formamide extraction of whole brain
Excerpt: FIG. 15 is a graph showing blood brain barrier permeability was impaired in aged 3xTg-AD female mice but reversed with TP-064. […] Formamide extraction of Evan's blue infused-whole-brain was quantified. * p<0.05 compared to C57, #p<0.05 compared to 3xTg-AD, evaluated by one-way ANOVA with Tukey's post-hoc analysis.

[2] = test system: phosphorylated tau (pTau); assay: Phosphorylated tau level in brain, capillary-phoresis; settings: treated 3xTg mice; controls = 100%
Excerpt: as §1

[3] = test system: amyloid precursor protein (APP); assay: Amyloid precursor protein level in brain, capillary-phoresis; settings: treated 3xTg-AD mice; controls = 100%; not significantly changed vs untreated 3xTg
Excerpt: as §1

aged 3xTg-AD female mice [4] = assay: Novel Object Recognition
Procedure: FIGS. 20A and 20B are two graphs showing PRMT4 inhibitor (TP-064) or AAV knockdown of PRMT4 improved functional learning/memory in aged 3xTg-AD female mice. […] C57 but increased with administration of TP-064 (30 mg/kg, 7 days, IP). In FIG. 20B, in Novel Object Recognition, aged 3xTg-AD female mice had fewer number of entries in the novel zone v. C57. Treatment with TP-064 or brain-specific AAV knockdown of PRMT4 increased the number of entries. T-maze and novel object recognition test were utilized to analyze working/short-term and reference/long-term memory, respectively. * p<0.05 v. C57 via one-way ANOVA with Tukey's post-hoc analyses.

iNOS = iNOS protein level in brain, capillary-phoresis; settings: treated 3xTg-AD mice; control = 100%
Excerpt: as §1

Question: For `CNCCN1CCC(c2cc(CN(C)C(=O)c3cccc(Oc4ccccc4)c3)ccn2)CC1` [TP-064, N-Methyl-N-((2-(1-(2-(methylamino)ethyl)piperidin-4-yl)pyridin-4-yl)methyl)-3-phenoxybenzamide], which E-Cadherin level (E-Cadherin) is on record?
Answer: elevated

Question: And the “nNOS level in cortical lysates” value (nNOS)?
Answer: 40.3%±2.88

Question: And the “nNOS level in hippocampal lysates” value (nNOS)?
Answer: 133%±8.15

Question: What about the “brain penetration of Evan's blue (BBB leakage)” value (aged 3xTg-AD female mice [1]) of the same molecule?
Answer: lower brain penetration of Evan's blue

Question: And the “pTau level in cortex” value [2]?
Answer: 234%±8.33

Question: What about the “pTau level in hippocampus” value [2] of the same molecule?
Answer: 307%±31.4

Question: And the “APP level in cortex” value [3]?
Answer: 801%±36.3

Question: What about the “APP level in hippocampus” value [3] of the same molecule?
Answer: 1040%±31.1

Question: And the “number of entries in the novel zone” value (aged 3xTg-AD female mice [4])?
Answer: increased

Question: And the “iNOS level in cortical lysates” value (iNOS)?
Answer: 197%±24.1

Question: What about the “iNOS level in hippocampal lysates” value (iNOS) of the same molecule?
Answer: 157%±17.5
